Measurements from patent US7598244B2, “[1,2,4]triazolo[1,5,a]pyrimidin-2-ylurea derivative and use thereof” (Nippon Kayaku Kabushiki Kaisha, priority 2003, dated 2009).

The compounds below were run on MHC class I molecules of T1 cells (human lymphoma cell line 174×CEM.) (assay: Effect on expression of MHC class I from T1 cells (flow cytometry, MFI)). Details: 3 days culture.
Assay type: cell-based
How it was run: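 EC20 is the compound level that lowers MHC class I MFI by 20% relative to compound-free cultures. Read-out was flow cytometry after FITC W6/32 staining.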
`CC(C)CCC[C@H](C)NC(=O)Nc1nc2nccc(-c3cccc(OCc4ccccc4)c3)n2n1` [Example 256] was tested, and the “EC20 (concentration necessary for suppressing 20% of the expression level of MHC class I molecules)” value was 550 nM.
With `COc1cccc([C@H](C)NC(=O)Nc2nc3nccc(-c4cccc(OCCC5OCCCO5)c4)n3n2)c1` [Example 207] the “EC20 (concentration necessary for suppressing 20% of the expression level of MHC class I molecules)” value was 60 nM.
For `CC[C@H](NC(=O)Nc1nc2nccc(-c3ccc(OC)cc3)n2n1)C(=O)Nc1ccccc1` [Example 148], the “EC20 (concentration necessary for suppressing 20% of the expression level of MHC class I molecules)” value was 260 nM.
`COc1ccc(-c2ccnc3nc(NC(=O)N[C@@H](C)C(=O)Nc4ccccc4)nn23)cc1` [Example 117] was tested, and the “EC20 (concentration necessary for suppressing 20% of the expression level of MHC class I molecules)” value was 190 nM.
In the case of `COc1ccc(-c2ccnc3nc(NC(=O)NC(C)CCCN(C)C(C)=O)nn23)cc1` (stereo not shown) [Example 283], the “EC20 (concentration necessary for suppressing 20% of the expression level of MHC class I molecules)” value is reported as 200 nM.
For `O=C(Nc1nc2nccc(-c3cccc(OCc4ccccc4)c3)n2n1)NC1CCCCC1` [Example 115], the “EC20 (concentration necessary for suppressing 20% of the expression level of MHC class I molecules)” value was 600 nM.
With `COc1ccc(-c2ccnc3nc(NC(=O)NC4CCC(C(=O)N(C)C)CC4)nn23)cc1` (stereo not shown) [Example 169] the “EC20 (concentration necessary for suppressing 20% of the expression level of MHC class I molecules)” value was 660 nM.
For `COc1ccc(-c2ccnc3nc(NC(=O)N[C@@H](C)c4ccc(Br)cc4)nn23)cc1` [Example 129], the “EC20 (concentration necessary for suppressing 20% of the expression level of MHC class I molecules)” value was 180 nM.
For `CCC(CC)NC(=O)Nc1nc2nccc(-c3ccc(OC)cc3)n2n1` [Example 128], the “EC20 (concentration necessary for suppressing 20% of the expression level of MHC class I molecules)” value was 540 nM.
In the case of `CCNC(=O)Nc1nc2nccc(-c3ccc(OC)cc3)n2n1` [Example 031], the “EC20 (concentration necessary for suppressing 20% of the expression level of MHC class I molecules)” value is reported as 400 nM.
For `COCCN(CCOC)C(=O)[C@@H](NC(=O)Nc1nc2nccc(-c3ccc(OC)cc3)n2n1)C(C)C` [Example 097], the “EC20 (concentration necessary for suppressing 20% of the expression level of MHC class I molecules)” value was 470 nM.
For `COc1ccc(-c2ccnc3nc(NC(=O)N[C@H](C(=O)NCc4ccccc4)C(C)C)nn23)cc1` [Example 089], the “EC20 (concentration necessary for suppressing 20% of the expression level of MHC class I molecules)” value was 210 nM.
`COc1cccc(-c2ccnc3nc(NC(=O)NC4CCCCC4)nn23)c1` [Example 017] was tested, and the “EC20 (concentration necessary for suppressing 20% of the expression level of MHC class I molecules)” value was 220 nM.
For `COCCCC(C)NC(=O)Nc1nc2nccc(-c3ccc(OC)cc3)n2n1` (stereo not shown) [Example 314], the “EC20 (concentration necessary for suppressing 20% of the expression level of MHC class I molecules)” value was 80 nM.
With `COCCOc1ccc(-c2ccnc3nc(NC(=O)N[C@@H](C)CCCC(C)C)nn23)cc1OCCOC` [Example 252] the “EC20 (concentration necessary for suppressing 20% of the expression level of MHC class I molecules)” value was 50 nM.
`CC(C)NC(=O)Nc1nc2nccc(-c3ccc4c(c3)OCO4)n2n1` [Example 087] was tested, and the “EC20 (concentration necessary for suppressing 20% of the expression level of MHC class I molecules)” value was 780 nM.
`CNC(=O)[C@@H](NC(=O)Nc1nc2nccc(-c3ccc(OC)cc3)n2n1)C(C)C` [Example 055] was tested, and the “EC20 (concentration necessary for suppressing 20% of the expression level of MHC class I molecules)” value was 690 nM.
In the case of `CCOCCCC(C)NC(=O)Nc1nc2nccc(-c3ccc(OC)cc3)n2n1` (stereo not shown) [Example 276], the “EC20 (concentration necessary for suppressing 20% of the expression level of MHC class I molecules)” value is reported as 120 nM.
With `COc1ccc([C@H](C)NC(=O)Nc2nc3nccc(-c4cccs4)n3n2)cc1` [Example 176] the “EC20 (concentration necessary for suppressing 20% of the expression level of MHC class I molecules)” value was 200 nM.
With `CC(C)CCC[C@H](C)NC(=O)Nc1nc2nccc(-c3ccc(OCCN4CCOCC4)cc3)n2n1.Cl` [Example 258, (S)-1-(1,5-dimethylhexyl)-3-{7-[4-(2-morpholin-4-ylethoxy)phenyl]-[1,2,4]triazolo[1,5-a]pyrimidin-2-yl}urea hydrochloride] the “EC20 (concentration necessary for suppressing 20% of the expression level of MHC class I molecules)” value was 8.7 nM.
`COc1ccc(-c2ccnc3nc(NC(=O)NC(C)c4cccc(OC(=O)OCc5ccccc5)c4)nn23)cc1` (racemic) [Example 197] was tested, and the “EC20 (concentration necessary for suppressing 20% of the expression level of MHC class I molecules)” value was 210 nM.
For `COc1cccc([C@H](C)NC(=O)Nc2nc3nccc(-c4cccc(OCCc5ccncc5)c4)n3n2)c1` [Example 209], the “EC20 (concentration necessary for suppressing 20% of the expression level of MHC class I molecules)” value was 40 nM.
In the case of `CC[C@H](NC(=O)Nc1nc2nccc(-c3ccc(OC)cc3)n2n1)C(=O)N1CCOCC1` [Example 149], the “EC20 (concentration necessary for suppressing 20% of the expression level of MHC class I molecules)” value is reported as 630 nM.
In the case of `COc1ccc(-c2ccnc3nc(NC(=O)N[C@@H](Cc4ccccc4)C(=O)OC(C)(C)C)nn23)cc1` [Example 112], the “EC20 (concentration necessary for suppressing 20% of the expression level of MHC class I molecules)” value is reported as 850 nM.
For `COc1ccc(-c2ccnc3nc(NC(=O)NCCc4cccnc4)nn23)cc1` [Example 104], the “EC20 (concentration necessary for suppressing 20% of the expression level of MHC class I molecules)” value was 430 nM.
In the case of `COc1ccc(-c2ccnc3nc(NC(=O)NCc4ccccn4)nn23)cc1` [Example 083], the “EC20 (concentration necessary for suppressing 20% of the expression level of MHC class I molecules)” value is reported as 870 nM.
With `CC(=O)OC(C)(C)C(=O)N(C)CCC(C)NC(=O)Nc1nc2nccc(-c3cccs3)n2n1` (stereo not shown) [Example 299] the “EC20 (concentration necessary for suppressing 20% of the expression level of MHC class I molecules)” value was 430 nM.
In the case of `C[C@H](NC(=O)Nc1nc2nccc(-c3cccs3)n2n1)c1ccc(O)cc1` [Example 182], the “EC20 (concentration necessary for suppressing 20% of the expression level of MHC class I molecules)” value is reported as 280 nM.
For `COc1ccc(-c2ccnc3nc(NC(=O)N[C@H](C(=O)NCCc4ccccn4)C(C)C)nn23)cc1` [Example 080], the “EC20 (concentration necessary for suppressing 20% of the expression level of MHC class I molecules)” value was 710 nM.
`COc1cccc([C@H](C)NC(=O)Nc2nc3nccc(-c4ccc(OC(=O)N5CCC(N6CCCCC6)CC5)cc4)n3n2)c1` [Example 293] was tested, and the “EC20 (concentration necessary for suppressing 20% of the expression level of MHC class I molecules)” value was 90 nM.
For `COc1ccc(-c2ccnc3nc(NC(=O)N[C@@H](C)CCc4ccccc4)nn23)cc1` [Example 127], the “EC20 (concentration necessary for suppressing 20% of the expression level of MHC class I molecules)” value was 80 nM.
In the case of `COc1ccc(-c2ccnc3nc(NC(=O)NCc4ccccc4OC)nn23)cc1` [Example 214], the “EC20 (concentration necessary for suppressing 20% of the expression level of MHC class I molecules)” value is reported as 420 nM.
With `COc1cccc([C@H](C)NC(=O)Nc2nc3nccc(-c4cccc(OCc5cccnc5)c4)n3n2)c1` [Example 202] the “EC20 (concentration necessary for suppressing 20% of the expression level of MHC class I molecules)” value was 60 nM.
`CCOCC[C@H](C)NC(=O)Nc1nc2nccc(-c3ccc(O)cc3)n2n1` [Example 329] was tested, and the “EC20 (concentration necessary for suppressing 20% of the expression level of MHC class I molecules)” value was 60 nM.
In the case of `COCCCC[C@H](C)NC(=O)Nc1nc2nccc(-c3ccc(OC)cc3)n2n1` [Example 233], the “EC20 (concentration necessary for suppressing 20% of the expression level of MHC class I molecules)” value is reported as 40 nM.
For `COc1ccc(-c2ccnc3nc(NC(=O)N[C@@H](C)C(=O)NCC4CCCCC4)nn23)cc1` [Example 121], the “EC20 (concentration necessary for suppressing 20% of the expression level of MHC class I molecules)” value was 170 nM.
With `COc1ccc(-c2ccnc3nc(NC(=O)N[C@H](C(=O)NCC4CCCCC4)C(C)C)nn23)cc1` [Example 092] the “EC20 (concentration necessary for suppressing 20% of the expression level of MHC class I molecules)” value was 200 nM.
For `CCCC(C)NC(=O)Nc1nc2nccc(-c3ccc(OCCOC)cc3)n2n1` (stereo not shown) [Example 286], the “EC20 (concentration necessary for suppressing 20% of the expression level of MHC class I molecules)” value was 160 nM.
`COc1ccc(-c2ccnc3nc(NC(=O)NC(C)C)nn23)cc1OC` [Example 086] was tested, and the “EC20 (concentration necessary for suppressing 20% of the expression level of MHC class I molecules)” value was 340 nM.
In the case of `CC(C)CCC[C@H](C)NC(=O)Nc1nc2nccc(-c3ccc(OCc4ccccc4)cc3)n2n1` [Example 254], the “EC20 (concentration necessary for suppressing 20% of the expression level of MHC class I molecules)” value is reported as 230 nM.
With `COc1ccc(-c2ccnc3nc(NC(=O)NC4C5CC6CC(C5)CC4C6)nn23)cc1` (stereo not shown) [Example 143] the “EC20 (concentration necessary for suppressing 20% of the expression level of MHC class I molecules)” value was 740 nM.
`CC(C)NC(=O)Nc1nc2nccc(-c3cccc(OCCCN(C)C)c3)n2n1` [Example 192] was tested, and the “EC20 (concentration necessary for suppressing 20% of the expression level of MHC class I molecules)” value was 900 nM.
`COC(=O)[C@@H](C)NC(=O)Nc1nc2nccc(-c3ccc(OC)cc3)n2n1` [Example 126] was tested, and the “EC20 (concentration necessary for suppressing 20% of the expression level of MHC class I molecules)” value was 320 nM.
In the case of `COCCCNC(=O)[C@@H](NC(=O)Nc1nc2nccc(-c3ccc(OC)cc3)n2n1)C(C)C` [Example 095], the “EC20 (concentration necessary for suppressing 20% of the expression level of MHC class I molecules)” value is reported as 630 nM.
`COCCOc1ccc(-c2ccnc3nc(NC(=O)N[C@@H](C)c4cccc(OC)c4)nn23)cc1` [Example 244, (S)-1-{7-[4-(2-methoxyethoxy)phenyl]-[1,2,4]triazolo[1,5-a]pyrimidin-2-yl}-3-[1-(3-methoxyphenyl)ethyl]urea] was tested, and the “EC20 (concentration necessary for suppressing 20% of the expression level of MHC class I molecules)” value was 19 nM.
For `COc1ccc(-c2ccnc3nc(NC(=O)NC4CCCC(C(=O)N(C)C)C4)nn23)cc1` (stereo not shown) [Example 175], the “EC20 (concentration necessary for suppressing 20% of the expression level of MHC class I molecules)” value was 300 nM.
`COc1cccc([C@H](C)NC(=O)Nc2nc3nccc(-c4cccc(OCc5ccccc5)c4)n3n2)c1` [Example 199] was tested, and the “EC20 (concentration necessary for suppressing 20% of the expression level of MHC class I molecules)” value was 280 nM.
In the case of `COc1cc(C(C)NC(=O)Nc2nc3nccc(-c4cccc(Cl)c4)n3n2)cc(OC)c1OC` (stereo not shown) [Example 305], the “EC20 (concentration necessary for suppressing 20% of the expression level of MHC class I molecules)” value is reported as 520 nM.
With `COc1ccc(-c2ccnc3nc(NC(=O)N[C@H](C(=O)NC4CCCCC4)C(C)C)nn23)cc1` [Example 094] the “EC20 (concentration necessary for suppressing 20% of the expression level of MHC class I molecules)” value was 200 nM.
In the case of `CCOCC[C@H](C)NC(=O)Nc1nc2nccc(-c3ccc(OCC4CCOCC4)cc3)n2n1` [Example 328], the “EC20 (concentration necessary for suppressing 20% of the expression level of MHC class I molecules)” value is reported as 70 nM.
In the case of `CCCC(C)NC(=O)Nc1nc2nccc(-c3cccs3)n2n1` (stereo not shown) [Example 284], the “EC20 (concentration necessary for suppressing 20% of the expression level of MHC class I molecules)” value is reported as 190 nM.
In the case of `COc1ccc(-c2ccnc3nc(NC(=O)NC(C)c4cccc(OS(C)(=O)=O)c4)nn23)cc1` (racemic) [Example 195], the “EC20 (concentration necessary for suppressing 20% of the expression level of MHC class I molecules)” value is reported as 60 nM.
